3 compounds from US20030199578A1, “Naphthalene amides as potassium channel openers” (priority 2002, published 2003) can be followed below.

Series [1] has as its system Landrace pig bladder strips. Put plainly: In vitro functional model: field-stimulated bladder tissue strips. As to conditions: dose dependent, concentration range 10^−9 to 10^−5 M, control agonist. The procedure:
Compounds were evaluated for functional potassium channel opening activity using tissue strips obtained from Landrace pig bladders. Landrace pig bladders were obtained from female Landrace pigs of 9-30 kg. Landrace pigs were euthanized with an intraperitoneal injection of pentobarbital solution, Somlethal®, J. A. Webster Inc., Sterling Mass. The entire bladder was removed and immediately placed into Krebs Ringer bicarbonate solution (composition, mM: NaCl, 120; NaHCO3, 20; dextrose, 11; KCl, 4.7; CaCl2, 2.5; MgSO4, 1.5; KH2PO4, 1.2; K2EDTA, 0.01, equilibrated with 5% CO2/95% O2 pH 7.4 at 37° C.). Propranolol (0.004 mM) was included in all of the assays to block β-adrenoceptors. The trigonal and dome portions were discarded. Strips 3-5 mm wide and 20 mm long were prepared from the remaining tissue cut in a circular fashion. The mucosal layer was removed. One end was fixed to a stationary glass rod and the other to a Grass FT03 transducer at a basal preload of 1.0 gram. Two parallel platinum electrodes were included in the stationary glass rod to provide field stimulation of 0.05 Hz, 0.5 milli-seconds at 20 volts. […] The maximal efficacy of each compound (expressed as % relative to P1075) is reported. […] Agonist potencies were also expressed as an index relative to P1075. The index was calculated by dividing the ED50 for P1075 by the ED50 for the test agonist in a given tissue. […]

Molecules are shown by their SMILES.

As a reminder, the melting point is the temperature, or range, at which the solid turns liquid. The compound `CC(=O)Nc1c(C(O)(C(F)(F)F)C(F)(F)F)cc(Cl)c2ccccc12` [Example 9, N-[4-Chloro-2-(2,2,2-trifluoro-1-hydroxy-1-trifluoromethyl-ethyl)-naphthalen-1-yl]-acetamide] came in with a melting point of 161 to 162 °C.

On to `CCC(C)(C)N=C(NC#N)Nc1cccnc1` [Example P1075], for which, in series [1], the “effect on stimulated twitch of bladder strips” value is recorded as “completely eliminated the stimulated twitch”. The compound `O=C(Nc1c(C(O)(C(F)(F)F)C(F)(F)F)ccc2ccccc12)c1ccno1` [Example 41, Isoxazole-5-carboxylic acid [2-(2,2,2-trifluoro-1-hydroxy-1-trifluoromethyl-ethyl)-naphthalen-1-yl]-amide] yielded a melting point of 162 to 164 °C.
